GI50 and TGI data for 7 molecules are collected here from PubChem BioAssay (NCI).

Molecules are shown by their SMILES. Where “and” joins values, the source holds several entries; their conditions need not be identical. Equal entries are not always repeated.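 Briefly, cells in 96-well plates were exposed to five compound concentrations for 48 h, and endpoints were estimated by linear interpolation. At the GI50, growth is halved. At the TGI there is no net growth.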 *1 amine or outer side, *2 acyl side, *3 side chain or, on linkers, in order; H or OH if unused. Where a SMILES comes first, the peptide text is derived from it. Bridges are numbered along the chain shown (N, C = ends). Roman numbers before positions name the chains, in order. [ ]: non-standard residue; d: D form. Actinocin(9to1) = Cc1c2oc3c(C)ccc(C(=O)[*:1])c3nc-2c(C(=O)[*:2])c(N)c1=O; NMeH = CN[CH](Cc1c[nH]cn1)C(=O)O; Sar = CNCC(=O)O Bounds are passed on as bounds.

Among the test systems are PC-3 prostate; CCRF-CEM leukemia; NCI/ADR-RES ovarian; T-47D breast; HCT-15 colon; MDA-MB-231 breast; SR leukemia; HCC-2998 colon; RPMI-8226 leukemia; SK-MEL-5 melanoma.
Assay in all cases: growth of human tumour cells (NCI), 48 h

For the molecule `CCCn1c2c(c3c(O)cccc31)C(=O)c1ccccc1-2`, the GI50 in the assay on PC-3 prostate was 12.6 µM; in the assay with CCRF-CEM leukemia, more than 100 µM; with NCI/ADR-RES ovarian, 13.4 µM; in the assay with T-47D breast it was 10 µM; with HCT-15 colon it was 34.1 µM; in the assay on MDA-MB-231 breast it was 22.1 µM. Further, the GI50 in the assay on SR leukemia was 0.0354 µM; with HCC-2998 colon it was 9.72 µM; in the assay with RPMI-8226 leukemia, 7.34 µM; in the assay with SK-MEL-5 melanoma it was 11.9 µM. Further, the TGI with PC-3 prostate is 36 µM; with CCRF-CEM leukemia, more than 100 µM; with NCI/ADR-RES ovarian, 81.6 µM; with T-47D breast, more than 100 µM; in the assay on HCT-15 colon, more than 100 µM; in the assay on MDA-MB-231 breast it was 73.8 µM. Besides, the TGI with SR leukemia was 23.8 µM; in the assay on HCC-2998 colon it was more than 100 µM; in the assay on RPMI-8226 leukemia, more than 100 µM; in the assay on SK-MEL-5 melanoma it was more than 100 µM.

As to `Cc1ccc(/C=C(\C#N)c2cc3ccccc3n2C)cc1`, the GI50 is 0.403 µM in the assay with PC-3 prostate; 0.355 µM in the assay on CCRF-CEM leukemia; 0.361 µM with NCI/ADR-RES ovarian; 0.587 µM in the assay with T-47D breast; 0.303 µM in the assay with HCT-15 colon; 0.671 µM in the assay with MDA-MB-231 breast. The GI50 in the assay on SR leukemia was 0.264 µM; in the assay on HCC-2998 colon, 0.484 µM; with RPMI-8226 leukemia, 0.38 µM; with SK-MEL-5 melanoma it was 0.647 µM. For the same molecule, the TGI with PC-3 prostate, in the assay on CCRF-CEM leukemia, in the assay with NCI/ADR-RES ovarian, in the assay on T-47D breast, in the assay on HCT-15 colon and in the assay with MDA-MB-231 breast was more than 100 µM in each case. The TGI in the assay on SR leukemia, in the assay on HCC-2998 colon, with RPMI-8226 leukemia and in the assay on SK-MEL-5 melanoma was more than 100 µM each time.

As for `O=C1NC(N/N=C\C(O)C(O)C(O)C(O)CO)=N/C1=C/c1ccccc1` (stereo not given), the GI50 in the assay on PC-3 prostate was 47.5 µM and 14.5 µM and > 100 µM; in the assay with CCRF-CEM leukemia it was 37.1 µM and 10.2 µM and 37.7 µM; in the assay with HCT-15 colon, 51.9 µM and 12.7 µM and > 100 µM; in the assay on MDA-MB-231 breast it was 51.7 µM and 15.4 µM and > 100 µM; with SR leukemia, 51 µM and 16.3 µM and 99.4 µM; with HCC-2998 colon, > 100 µM and 13.5 µM. Moreover, the GI50 with RPMI-8226 leukemia was 58.8 µM and 19.6 µM and > 100 µM; in the assay on SK-MEL-5 melanoma, 44.5 µM and 14.8 µM and > 100 µM. Further, the TGI is > 100 µM and 28 µM in the assay on PC-3 prostate; > 100 µM and 97.7 µM and > 57.7 µM with CCRF-CEM leukemia; more than 100 µM in the assay on NCI/ADR-RES ovarian; > 100 µM and 26.7 µM with T-47D breast; > 100 µM and 33.8 µM in the assay on HCT-15 colon; > 100 µM and 33.4 µM in the assay with MDA-MB-231 breast. Also, the TGI is > 100 µM and 51.2 µM in the assay with SR leukemia; > 100 µM and 41.7 µM in the assay on HCC-2998 colon; > 100 µM and 45.2 µM in the assay with RPMI-8226 leukemia; > 100 µM and 29.2 µM in the assay with SK-MEL-5 melanoma.

Consider `COC(=O)c1cc(-c2ccccc2)[nH]c1N/N=C/c1c(Cl)cccc1Cl`, for which the GI50 was 0.41 µM with PC-3 prostate; 0.348 µM in the assay on CCRF-CEM leukemia; 0.22 µM in the assay with NCI/ADR-RES ovarian; 0.418 µM in the assay with T-47D breast; 0.308 µM in the assay with HCT-15 colon; 0.474 µM in the assay with MDA-MB-231 breast. Further, the GI50 was 0.429 µM in the assay on SR leukemia, 0.363 µM in the assay on HCC-2998 colon, 0.243 µM in the assay on RPMI-8226 leukemia and 0.335 µM in the assay with SK-MEL-5 melanoma. In addition, the TGI was 93 µM in the assay with CCRF-CEM leukemia; 0.77 µM in the assay with NCI/ADR-RES ovarian; 7.36 µM in the assay with T-47D breast; more than 36 µM in the assay on HCT-15 colon; 6.85 µM with MDA-MB-231 breast; more than 100 µM in the assay on SR leukemia. The TGI in the assay with HCC-2998 colon is 23.4 µM; in the assay with RPMI-8226 leukemia it was 0.753 µM; in the assay with SK-MEL-5 melanoma it was 1.89 µM.

As for `Cc1c2oc3c(C)ccc(C(=O)NC4C(=O)NC(C(C)C)C(=O)N5CCCC5C(=O)N(C)CC(=O)N(C)C(Cc5cnc[nH]5)C(=O)OC4C)c3nc-2c(C(=O)NC2C(=O)NC(C(C)C)C(=O)N3CCCC3C(=O)N(C)CC(=O)N(C)C(Cc3cnc[nH]3)C(=O)OC2C)c(N)c1=O` (stereo not given) (I: TVP[Sar][NMeH] / II: TVP[Sar][NMeH]; ester I:1-I:C, II:1-II:C; linker I:N-II:N via Actinocin(9to1); configuration not given here), the TGI in the assay on PC-3 prostate, with CCRF-CEM leukemia, with NCI/ADR-RES ovarian, in the assay on T-47D breast, in the assay on HCT-15 colon and in the assay on MDA-MB-231 breast was more than 100 µM each time. Further, the TGI with SR leukemia was more than 100 µM; with HCC-2998 colon, more than 100 µM; in the assay on RPMI-8226 leukemia it was more than 100 µM; in the assay on SK-MEL-5 melanoma, 55.9 µM.

For the molecule `COc1ccc([C@H](CC(=O)O)N2CCN(CCCc3ccc4c(n3)NCCC4)C2=O)cn1`, the GI50 was more than 100 µM in the assay with PC-3 prostate; more than 100 µM with CCRF-CEM leukemia; more than 100 µM in the assay on NCI/ADR-RES ovarian; 0.382 µM with T-47D breast; 0.311 µM in the assay on HCT-15 colon; 0.254 µM in the assay on MDA-MB-231 breast. The GI50 with SR leukemia is more than 100 µM; with HCC-2998 colon it was more than 100 µM; in the assay with RPMI-8226 leukemia, more than 100 µM; in the assay with SK-MEL-5 melanoma, 0.0501 µM. For the same molecule, the TGI in the assay on PC-3 prostate is more than 100 µM; with CCRF-CEM leukemia, more than 100 µM; with NCI/ADR-RES ovarian, more than 100 µM; in the assay with T-47D breast, 4.65 µM; in the assay with SR leukemia, more than 100 µM; in the assay with HCC-2998 colon, more than 100 µM. For the same molecule, the TGI in the assay on RPMI-8226 leukemia is more than 100 µM; with SK-MEL-5 melanoma, 0.173 µM.

Turning to `CC1=CC2C(C(O)CC3(C)C2CC(C)C32OCOC23COCO3)C2(C)C/C(=C/O)C(=O)C=C12` (stereo not given), the GI50 in the assay on PC-3 prostate is 1.71 µM; in the assay on CCRF-CEM leukemia, 1.05 µM; in the assay on NCI/ADR-RES ovarian, 2.28 µM; in the assay on T-47D breast, 2.33 µM; with HCT-15 colon, 1.97 µM; in the assay on MDA-MB-231 breast, 1.75 µM. The GI50 in the assay on SR leukemia was 2.11 µM; in the assay with HCC-2998 colon it was 1.91 µM; in the assay with RPMI-8226 leukemia, 1.84 µM; in the assay on SK-MEL-5 melanoma it was 1.74 µM. For the same molecule, the TGI in the assay on PC-3 prostate came to 4.4 µM; with CCRF-CEM leukemia it was 3.61 µM; with NCI/ADR-RES ovarian, 4.8 µM; with T-47D breast, 5.73 µM; in the assay with HCT-15 colon, 5.07 µM; in the assay with MDA-MB-231 breast, 3.49 µM. In addition, the TGI with SR leukemia stood at 4.45 µM; in the assay with HCC-2998 colon, 3.38 µM; in the assay on RPMI-8226 leukemia, 5.15 µM; with SK-MEL-5 melanoma, 3.16 µM.
